# Experiments:
# normal rats = test: Oral glucose tolerance test in normal rats; type: in vivo, rat; settings: compared to vehicle treated animals, FIG. 11
# Source text: FIG. 11 represents the hypoglycemic activity of MC6.1 and its derivators, MC6.2 and 6.3 analogs in oral glucose tolerance test in normal rats.
# SD rats = test: Comparison of MC6 (oral, i.v.) with i.v. r-insulin during glucose infusion in SD rats; type: in vivo, rat; settings: 500 μg MC6 i.v. or 150 mU r-insulin i.v. at 60 minutes following glucose infusion, FIG. 5
# Experimental: In the next experiment, orally administered purified fraction MC6 (500 μg) was compared with i.v. injection of insulin (150 mU) in SD rats. Animals were divided into four groups and starved for three hours. Group 1 received PBS only; group 2 was given MC6 orally 60 minutes before glucose infusion; group 3 received 150 mU r-insulin (Humalin-R® of Novo-Nordisk) i.v. at 60 minutes following glucose infusion through jugular vein and group 4 received 500 μg MC6 in 1 ml PBS (i.v.) at 60 minutes following glucose infusion through jugular vein. In all cases, glucose infusion was at 18 mg/min/kg. Blood samples were collected from the carotid artery at different time intervals and quantitative plasma glucose levels were measured […].
substance,measurement,setting,value
6.3: 7-a.a. derivative of MC6.1: K-T-N-M-K-H-M (SEQ ID NO:03) (KTNMKHM),lowering blood glucose in oral glucose tolerance test,normal rats,effective in lowering blood glucose
"r-insulin: r-insulin (Humalin-R of Novo-Nordisk), 150 mU i.v., comparator","hypoglycemic profile, systemic (i.v.) injection",SD rats,identical hypoglycemic profile

# From US6852695B2, “Orally active fraction of momordica charantia, active peptides thereof, and their use in the treatment of diabetes” (Theracos, Inc., priority 1997, dated 2005)
